Among the data in US5627215A, “Unsaturate amino compounds for use as anticancer and antiprotozoic agent” (Ciba-Geigy Corporation, priority 1993, dated 1997) are IC50 and activity values, retold here.

Experiment [1] concerns human T24 bladder carcinoma cells. Briefly: Inhibition of growth of human T24 bladder carcinoma cells (methylene blue staining, 5 days). The class given is cell-based. The conditions noted are these: 120 h, Eagle's minimal essential medium, 5 days incubation. The protocol: The carcinoma cells (1000-1500) are transferred to 96-well microlitre plates and are incubated overnight under the said conditions. The test compound is added in serial dilutions on day 1. The plates are incubated under the said conditions for 5 days. During that period, control cultures undergo at least 4 cell divisions. After incubation, the cells are fixed with 3.3% (weight/volume=w/v) aqueous glutaraldehyde solution, washed with water and stained with 0.05% (w/v) aqueous methylene blue solution. After washing, the dye is eluted with 3% (w/v) aqueous hydrochloric acid. The optical density (OD) per well, which is directly proportional to the number of cells, is then measured by means of a photometer (Titertek multiskan) at 665 nm. The IC50 values are calculated by means of a computer system using the formula [formula] The IC50 value is defined as the concentration of active ingredient at which the number of cells per well at the end of the incubation period is only 50% of the number of cells in the control cultures. Inhibition of growth of human T24 bladder carcinoma cells: Using the method for inhibition of growth of human T24 bladder carcinoma cells om Eagle's minimal essential medium (see above), the following test results are obtained (given as IC50 =concentration of the active ingredient at which the number of cells per well at the end of the incubation period is only 50% of the number of cells in the control cultures): […]

Experiment [2] deals with mouse ascites L1210 leukaemia cells. Briefly: Levels of putrescine, spermidine and spermine (polyamine pools) in mouse ascites L1210 leukemia cells (method of Porter et al., HPLC). The class given is cell-based. As to conditions: 48 h incubation; for activity at 10 µM: test compound 10 μM; for activity at 5 µM: test compound 5 μM. The protocol:
Mouse ascites L1210 leukaemia cells are cultured (at 37° C.) in RPMI-1640 medium (which contains, per litre, 100 mg of Ca(NO3)2,400 mg of KCl, 100 mg of MgSO4.7H2 O, 6000 mg of NaCl, 2000 mg of NaHCO3, 801 mg of Na2 HPO4, 242 mg of L-Arg.HCl, 50 mg of L-Ash, 20 mg of L-Asp, 50 mg of L-Cys, 300 mg of L-Gln, 20 mg of L-Glu, 10 mg of Gly, 18.2 mg of L-His.HCl.H2 O, 20 mg of L-hydroxyproline, 50 mg of L-Leu, 40 mg of L-Lys.HCl, 15 mg of L-Met, 15 mg of L-Phe, 20 mg of L-Pro, 30 mg of L-Ser, 20 mg of L-Thr, 5 mg of L-Trp, 20 mg of L-Tyr, 20 mg of L-Vat, 1 mg of […], 0.2 mg of biotin, 3 mg of choline chloride, 1 mg of folic acid, 35 mg of i-inositol, 1 mg of nicotinamide, 0.25 mg of pantothenoic acid calcium salt, 1 mg of pyridoxine.HCl, 0.2 mg of riboflavin, 1 mg of thiamine. HCl, 0.005 mg of vitamin B12, 2000 mg of glucose, 1 mg of glutathione, and 5 mg of phenol red), which also contains 2 % 4-(2-hydroxyethyl)-1-piperazineethanesulfonic acid/3-(N-morpholino)propanesulfonic acid, 1 mM aminoguanidine and 10% NuSerum (Collaborative Research Inc., Lexington, Mass.). The cells are cultured under a humid 5% carbon dioxide atmosphere at 37° C. either in glass culture tubes (2 ml) or in 25 or 75 cm^2 tissue culture bottles in a total volume of 15 or 50 ml, respectively. The cultures are treated with the compounds of formula I or with 0.1 mM spermidine (controls: without corresponding compounds) during the logarithmic growth phase (0.5 to 1×10^5 cells/ml). The number of cells is measured by electronic particle counting (Model ZF Coulter Counter, Coulter Electronics, Hialeah, Fla.) and confirmed from time to time by haemocytometer measurements. The viability of the cells is measured by trypan blue exclusion measurement (0.5% in unbuffered 0.9% sodium chloride solution ).
For polyamine determination, the cell samples are washed twice in cold PBS (="Phosphate Buffered Saline"--contains per litre 8000 mg of NaCl, 200 mg of KCl, 1150 mg of Na2 HPO4.2H2 O, 200 mg of KH2 PO4, 100 mg of MgCl2.H2 O, 200 mg of MgSO4.H2 O and CaCl2; pH 7.2), and an aliquot of 10^7 cells is removed for polyamine determination. The cells are formed into a pellet, and the PBS supernatant is removed carefully using a cotton wool swab. The pellet containing the cells is then maintained together with 0.5 ml of 0.6M perchloric acid for 30 minutes at 4° C. and is then centrifuged for 3 minutes at 12,000 g using a microcentrifuge. The supernatant is frozen at -20° C. until the HPLC analysis. For that purpose, the polyamines in a 50 μl sample of the perchloric acid extract are separated over an HPLC system using a glass "Microbore Column" having a diameter of 2.8 mm, which is packed to a height of 2 cm with TLC-4A-cationexchange resin (Durrum Chemical Corp., Palo Alto, Calif.). The column temperature is maintained at 65° C. by means of a water bath with circulating water. The column is eluted at a flow rate of 16 ml/h with an initial column pressure of 34.45 bar, which decreases as the ionic strength of the elution buffer increases. Buffer 1 (which contains 0.2M boric acid, 0.5M NaCl, 0.03% Brij 35 (polyoxyethylene monolauryl ether, the number of ethyleneoxy radicals is approximately 23; Pierce Chemical Co., Rockford, Ill.) and 0.0001% octanoic acid, pH adjusted to 6.0 with saturated KOH) is flushed through the column for 4 minutes. Buffer 2 (which contains 0.2M boric acid, 2.15M NaCl, 0.03% Brij 35 and 0.0001% octanoic acid, pH adjusted as above) is pumped through for 6 minutes. Buffer 3 (which contains 0.2M boric acid, 2.9M NaCl and 0.0001% octanoic acid (pH adjusted as above)) is likewise applied for 6 minutes. The column is re-equilibrated for 10 minutes with buffer 1, before the next sample is introduced. The column eluate is derivatised with 0.05% o-phthalaldehyde (Durrum Chemical Corp.) in 0.4M borate buffer (pH 10.4)/1 mM 2-mercaptoethanol/0.09% Brij 35. The flow rate for o-phthalaldehyde is 8 ml/h. […]

Setting [3] is: read-out: level of putrescine (PU), % of the respective control.
Where [4] appears, read: read-out: level of spermidine (SPD), % of the respective control.
Setting [5] is: read-out: level of spermine (SPM), % of the respective control.

Counter-ions that a name gives are not always drawn. Like-named read-outs stand apart in the source and are kept apart here.

`CCCCNCCCNC/C=C/CNCCCNCCCC` [Example 3, (E)-1,14-Di-butyl-1,5,10,14-tetraazatetradec-7-ene tetrahydrochloride] came in with an IC50 in experiment [1] of 8200 nM.

As to `C=CCNCCCNC/C=C/CNCCCNCC=C` [Example 2, (E)-1,14-Di-allyl-1,5,10,14-tetraazatetradec-7-ene tetrahydrochloride], the activity at 10 µM in experiment [2] (setting [3]) is 16%; in experiment [2] (setting [4]), 3.1%; in experiment [2] (setting [5]) it was 36%. Further, in experiment [1], the midpoint of inhibition, the IC50, lay at 600 nM.

In the case of `CCCNCCCNC/C=C/CNCCCNCCC` [Example 1, (E)-1,14Di-propyl-1,5,10,14-tetraazatetradec-7-ene tetrahydrochloride], the activity at 10 µM in experiment [2] (setting [3]) came out at 9.4%; in experiment [2] (setting [4]) it was 12%; in experiment [2] (setting [5]), 67%. Moreover, the IC50 in experiment [1] came out at 640 nM.

`CCNCCCNC/C=C/CNCCCNCC` [Example 5, (E)-1,14-Di-ethyl-1,5,10,14-tetraazatetradec-7-ene tetrahydrochloride]: the activity at 5 µM in experiment [2] (setting [3]) amounted to 4.1%; in experiment [2] (setting [4]), 2.1%; in experiment [2] (setting [5]), 30%.

Regarding `C=CCNCCCNC/C=C/CNCCCNCCC` [Example 13, (E)-1-Allyl-14-propyl-1,5,10,14-tetraazatetradec-7-ene tetrahydrochloride], the activity at 10 µM in experiment [2] (setting [3]) is 0%; in experiment [2] (setting [4]) it was 1.3%; in experiment [2] (setting [5]) it was 25%. In addition, in experiment [1], the IC50 was 2140 nM.

As to `CCCCNCCCNC/C=C/CNCCCNCC` [Example 8, (E)-1-Butyl-14-ethyl-1,5,10,14-tetraazatetradec-7-ene tetrahydrochloride], the activity at 10 µM came out at 4.8% in experiment [2] (setting [3]), 0.2% in experiment [2] (setting [4]) and 4% in experiment [2] (setting [5]). In experiment [1], this molecule registered an IC50 of 550 nM.

On to `C(=C\CNCCCNCC1CC1)/CNCCCNCC1CC1` [Example 16, (E)-1,14-Di-cyclopropylmethyl-1,5,10,14-tetraazatetradec-7-ene tetrahydrochloride], for which the activity at 10 µM in experiment [2] (setting [3]) was 12%; in experiment [2] (setting [4]) it was 24%; in experiment [2] (setting [5]), 62%. This molecule also returned an IC50 in experiment [1] of 920 nM.

Regarding `CCCNCCCNC/C=C/CNCCCNCC` [Example 9, (E)-1-Ethyl-14-propyl-1,5,10,14-tetraazatetradec-7-ene tetrahydrochloride], the activity at 10 µM in experiment [2] (setting [3]) stood at 6.9%; in experiment [2] (setting [4]), 2%; in experiment [2] (setting [5]), 19%. In experiment [1], this molecule had an IC50 of 1100 nM.

Turning to `C=CCNCCCNC/C=C/CNCCCNCC` [Example 6, (E)-1-Ally-14-ethyl-1,5,10,14-tetraazatetradec-7-ene tetrahydrochloride], the activity at 10 µM is 4.1% in experiment [2] (setting [3]), 2.1% in experiment [2] (setting [4]) and 12% in experiment [2] (setting [5]). In experiment [1], this molecule gave an IC50 of 3000 nM.
